{
  "source": "paper PMC4503439",
  "about": "“Dose-Independent ADME Properties and Tentative Identification of Metabolites of α-Mangostin from Garcinia mangostana in Mice by Automated Microsampling and UPLC-MS/MS Methods” (PLoS ONE, 2015)",
  "key": {"Caco2 cell line": {"tested_on": "Caco2 cell line", "parameters": "method as in PMID 19415666", "settings": "cited from earlier work"}, "[1]": {"assay": "Pharmacokinetics of α-MG after oral administration to mice (automated microsampling)", "assay_type": "in vivo", "settings": "for CL renal / Cmax / AUC / Tmax / half-life / Ae 0–24 h / GI 24 h: oral; for Tmax: median (ranges); for half-life: read-out: Terminal half-life", "method": "The surgical procedures were conducted under intramuscular injection anesthesia with 125 mg (1.5 mL)/kg of tiletamine HCl and zolazepam HCl mixture. The carotid artery (for intravenous and oral studies) and the jugular vein (for intravenous study) were cannulated using CX-2052S and CX-2022S catheters (BASi, West Lafayette, IN), respectively. After the mice awoke from anesthesia, the administration of α-MG and blood sampling were performed, [12], [31].\nα-MG (the same solution as used in the intravenous study) at doses of 10, 50 and 100 mg (10 mL)/kg was administered orally using a gastric gavage tube after overnight fasting with free access to water. A blood sample using the microsampling system was collected via the carotid artery at 0, 5, 15, 30, 60, 90, 120, 180, 240, 300 and 360 min after the oral administration of α-MG. Other procedures were similar to those in the intravenous study.\nThe analytical method for measuring α-MG was modified from a previous report. In sample preparation, 100 μL of acetonitrile containing 1 μg/mL IS was added to 50 μL of aliquot of the sample. After vortex-mixing and centrifugation (15000 × g for 10 min), 10 μL of the supernatant was directly injected into a reversed-phase C18 column (Cadenza CD-C18, 2 mm × 75 mm i.d., 3-μm particle size; Imtakt, USA) kept at 4°C until injection. The analytes were monitored using a API4000 triple quadrupole mass spectrometer (AB Sciex, Foster City, CA) equipped with a turbo ion-spray interface for electrospray ionization and operated in positive ion mode at 5500 V and 500°C at 50 L/min of nebulizing gas flow, 50 L/min of turbo ion-spray gas flow, 20 L/min of curtain gas flow, 5500 V of ring voltage and 5 Torr of collision gas (nitrogen) pressure.\nStandard methods were used to calculate the following pharmacokinetic parameters using a non-compartmental analysis (WinNonlin 2.1; Pharmasight Corp., Mountain View, CA). The extent of absolute oral bioavailability (F) was calculated by dividing the AUCoral/AUCiv at the same dose. The peak plasma concentration (C max) and time to reach C max (T max) were read directly from the […] data."}, "[2]": {"assay": "Metabolism of α-MG in in vitro S9 fraction of small intestine", "assay_type": "in vitro ADME, mice", "settings": "30 min incubation, NADPH and UDPGA", "source_text": "(§1) The procedures for using S9 fractions from various tissues were similar those already reported. Each liver, stomach, small intestine, large intestine, lung, heart, kidney, fat, mesentery, muscle, and brain was excised after cervical dislocation (n = 6). Each tissue sample was rinsed with cold 0.9% NaCl-injectable solution, blotted dry with tissue paper and weighed. Then each tissue was homogenized with a volume of 0.25 M sucrose at 4 times of each tissue. Metabolic activity was initiated by adding a 100 μL aliquot of the 9000 × g supernatant fraction (S9) of each tissue to a 135 μL of Tris-buffer (pH 7.4), 5 μL of 0.9% NaCl-injectable solution with 1 or 20 μg/mL α-MG as a final concentration, 5 μL (1 mM) of NADPH and 5 μL (3.3 mM) of UDPGA. A 250 μL aliquot of acetonitrile (containing 1 μg/mL of the IS) was added after a 30 min incubation in a thermomixer (37°C and 500 opm) to terminate the enzyme activity. The amount of remaining α-MG in the S9 fraction of each tissue was determined using the HPLC-MS/MS analytical method."}, "[3]": {"assay": "Metabolism of α-MG in in vitro S9 fractions of other tissues", "assay_type": "in vitro ADME, mice", "settings": "other tissues studied, spiked 1 and 20 μg/mL", "source_text": "as §1"}, "[4]": {"assay": "Metabolism of α-MG in in vitro S9 fraction of liver", "assay_type": "in vitro ADME, mice", "settings": "30 min incubation, NADPH and UDPGA", "source_text": "as §1"}, "[5]": {"assay": "Stability of α-MG in various buffer solutions", "assay_type": "physicochemical", "settings": "pHs ranging from 2 to 13; unpublished data"}, "[6]": {"assay": "Tentative identification of metabolites from α-MG by UPLC-MS/MS", "assay_type": "in vivo", "settings": "mice after intravenous and oral α-MG; S9 fractions after 30-min incubation", "source_text": "Probable metabolites of α-MG were identified using the simultaneous full scan MS, MRM and MS/MS modes in a Waters UPLC-XEVO TQ system (Waters Corporation, Milford, USA) to confirm the structures of any metabolites. […] Structural elucidation of the metabolites was based on the fragmentation patterns of parent ion from the MS/MS mode at a collision energy of 10 to 20 eV generating daughter ions. The mass transitions for α-MG was m/z 411.21 → 354.85 (collision energy of 20 eV and collision cell exit potential of 25 eV, respectively). The unknown masses were further analyzed in MS/MS (daughter scan) mode with the electrospray ionization interface used to generate positive and negative ions at a capillary voltage of 3.0 kV, source temperature of 350°C and desolvation gas temperature of 650°C. The MRM methods for identification of possible metabolites generated by phase I and/or II reactions were included.\nThese compounds were separated on a reversed-phase C18 column (XSELECT CSH, 2.1 mm × 100 mm i.d., 1.7-μm particle size; Waters, Ireland) with a flow rate of 0.35 mL/min. The mobile phase composition was started at 95: 5 (v/v) of distilled water containing 0.1% formic acid (A) and acetonitrile (B) and gradually changed to 35: 65 (v/v) for 30 min, and then switched back to 95: 5 (v/v) for 40 min."}, "P-glycoprotein": {"molecular_target": "T1, P-glycoprotein (Homo sapiens, UniProt P08183)", "T1 construct": "expressed in transfected cells; host or cells: MDCK-mdr1 (canine kidney cells carrying an mdr1 transgene; transfection is inferred from the cell line name)", "T1 sequence (P08183 whole entry)": "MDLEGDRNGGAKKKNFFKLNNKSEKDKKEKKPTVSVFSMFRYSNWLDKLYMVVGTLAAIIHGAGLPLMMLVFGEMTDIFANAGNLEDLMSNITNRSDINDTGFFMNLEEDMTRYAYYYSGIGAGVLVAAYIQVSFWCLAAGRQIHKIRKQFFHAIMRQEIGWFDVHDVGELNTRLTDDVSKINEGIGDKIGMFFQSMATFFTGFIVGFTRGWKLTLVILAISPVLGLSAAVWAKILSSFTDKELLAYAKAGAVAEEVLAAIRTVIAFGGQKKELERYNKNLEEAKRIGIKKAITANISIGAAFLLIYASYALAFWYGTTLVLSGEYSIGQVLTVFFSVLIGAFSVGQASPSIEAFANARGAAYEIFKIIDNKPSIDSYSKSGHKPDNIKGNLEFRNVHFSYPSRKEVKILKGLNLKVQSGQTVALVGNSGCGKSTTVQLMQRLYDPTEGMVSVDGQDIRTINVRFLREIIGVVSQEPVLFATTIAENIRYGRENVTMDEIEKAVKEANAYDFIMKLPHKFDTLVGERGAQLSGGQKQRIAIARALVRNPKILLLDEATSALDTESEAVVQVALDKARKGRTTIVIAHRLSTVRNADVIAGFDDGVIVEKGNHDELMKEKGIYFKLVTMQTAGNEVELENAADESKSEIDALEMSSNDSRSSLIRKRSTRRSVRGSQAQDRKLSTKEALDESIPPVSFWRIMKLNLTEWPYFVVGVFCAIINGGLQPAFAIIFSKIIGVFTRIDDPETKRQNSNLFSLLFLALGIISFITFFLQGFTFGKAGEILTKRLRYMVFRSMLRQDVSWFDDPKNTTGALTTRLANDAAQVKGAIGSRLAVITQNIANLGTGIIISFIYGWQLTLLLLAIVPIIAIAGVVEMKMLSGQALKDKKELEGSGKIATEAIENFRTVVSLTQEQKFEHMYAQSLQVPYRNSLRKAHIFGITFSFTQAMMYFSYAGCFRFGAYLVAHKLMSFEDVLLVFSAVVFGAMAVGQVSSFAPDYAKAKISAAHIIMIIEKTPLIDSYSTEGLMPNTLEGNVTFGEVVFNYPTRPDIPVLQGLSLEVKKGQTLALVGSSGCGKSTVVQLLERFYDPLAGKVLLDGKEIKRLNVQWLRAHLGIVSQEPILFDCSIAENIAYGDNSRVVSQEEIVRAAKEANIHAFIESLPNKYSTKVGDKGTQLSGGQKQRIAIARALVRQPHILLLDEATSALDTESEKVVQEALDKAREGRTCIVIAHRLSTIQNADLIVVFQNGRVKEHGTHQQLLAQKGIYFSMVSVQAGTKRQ", "assay": "P-glycoprotein substrate test in MDCK-mdr1 cell line", "assay_type": "in vitro ADME", "settings": "our unpublished data"}},
  "note": "Read-outs that look alike come from different tables or passages of the source.",
  "data": [
    {"smiles": "COc1c(O)cc2oc3cc(O)c(CC=C(C)C)c(O)c3c(=O)c2c1CC=C(C)C", "note": "[α-MG, α-Mangostin]", "values": [
      {"measurement": "absorption in the Caco2 cell line", "setting": "Caco2 cell line", "result": "low absorption"},
      {"measurement": "first blood sampling time point at which detected in plasma", "setting": "[1]; after oral administration", "result": 5, "unit": "min"},
      {"measurement": "F unabs ('true' fraction of the oral dose unabsorbed)", "setting": "[1]; calculated by reported equation assuming linear pharmacokinetics", "result": 0.434},
      {"measurement": "bioavailability", "setting": "[1]; mouse, plasma, oral 10 mg/kg, AUCoral/AUCiv at the same dose, read-out: F (absolute oral bioavailability)", "result": 2.29, "unit": "%"},
      {"measurement": "CL renal", "setting": "[1]; mouse, plasma, 10 mg/kg", "result": "0.535 ± 0.309", "unit": "mL/min/kg"},
      {"measurement": "Cmax", "setting": "[1]; mouse, plasma, 10 mg/kg", "result": "40.3 ± 30.7", "unit": "ng/mL"},
      {"measurement": "AUC", "setting": "[1]; mouse, plasma, 10 mg/kg (n = 8)", "result": 130, "unit": "ng·h/mL"},
      {"measurement": "Tmax", "setting": "[1]; mouse, plasma, 10 mg/kg", "result": 1, "unit": "h"},
      {"measurement": "half-life", "setting": "[1]; mouse, plasma, 10 mg/kg", "result": "2.95 ± 1.18", "unit": "h"},
      {"measurement": "CL renal", "setting": "[1]; mouse, plasma, 50 mg/kg", "result": "0.547 ± 0.309", "unit": "mL/min/kg"},
      {"measurement": "Cmax", "setting": "[1]; mouse, plasma, 50 mg/kg", "result": "242 ± 35", "unit": "ng/mL"},
      {"measurement": "AUC", "setting": "[1]; mouse, plasma, 50 mg/kg (n = 7)", "result": 622, "unit": "ng·h/mL"},
      {"measurement": "Tmax", "setting": "[1]; mouse, plasma, 50 mg/kg", "result": 0.5, "unit": "h"},
      {"measurement": "half-life", "setting": "[1]; mouse, plasma, 50 mg/kg", "result": "3.28 ± 1.35", "unit": "h"},
      {"measurement": "CL renal", "setting": "[1]; mouse, plasma, 100 mg/kg", "result": "0.418 ± 0.229", "unit": "mL/min/kg"},
      {"measurement": "Cmax", "setting": "[1]; mouse, plasma, 100 mg/kg", "result": "709 ± 397", "unit": "ng/mL"},
      {"measurement": "AUC", "setting": "[1]; mouse, plasma, 100 mg/kg (n = 9)", "result": 1390, "unit": "ng·h/mL"},
      {"measurement": "Tmax", "setting": "[1]; mouse, plasma, 100 mg/kg", "result": 1, "unit": "h"},
      {"measurement": "half-life", "setting": "[1]; mouse, plasma, 100 mg/kg", "result": "2.52 ± 0.822", "unit": "h"},
      {"measurement": "Ae 0–24 h", "setting": "[1]; 10 mg/kg", "result": "0.0255 ± 0.0107 % of dose"},
      {"measurement": "GI 24 h", "setting": "[1]; 10 mg/kg", "result": "43.5 ± 10.6 % of dose"},
      {"measurement": "Ae 0–24 h", "setting": "[1]; 50 mg/kg", "result": "0.0315 ± 0.0241 % of dose"},
      {"measurement": "GI 24 h", "setting": "[1]; 50 mg/kg", "result": "40.2 ± 11.6 % of dose"},
      {"measurement": "Ae 0–24 h", "setting": "[1]; 100 mg/kg", "result": "0.0270 ± 0.0113 % of dose"},
      {"measurement": "GI 24 h", "setting": "[1]; 100 mg/kg", "result": "41.2 ± 4.51 % of dose"},
      {"measurement": "disappearance of spiked α-MG", "setting": "[2]; small intestine S9, 1 μg/mL", "result": 34.8, "unit": "%"},
      {"measurement": "disappearance of spiked α-MG", "setting": "[2]; small intestine S9, 20 μg/mL", "result": 36.2, "unit": "%"},
      {"measurement": "metabolic activity in S9 fractions", "setting": "[3]", "result": "almost negligible metabolic activities"},
      {"measurement": "disappearance of spiked α-MG", "setting": "[4]; liver S9, 1 μg/mL", "result": 57.3, "unit": "%"},
      {"measurement": "disappearance of spiked α-MG", "setting": "[4]; liver S9, 20 μg/mL", "result": 51.4, "unit": "%"},
      {"measurement": "stability in various buffer solutions", "setting": "[5]", "result": "stable"},
      {"measurement": "Source (samples in which detected)", "setting": "[6]", "result": "plasma, urine, feces, liver, small intestine, S9 fractions of liver and small intestine"},
      {"measurement": "substrate of P-glycoprotein", "setting": "P-glycoprotein", "result": "substrate of P-glycoprotein"}
    ]}
  ]
}
